Values of other authors, collected in patent US20250136601A1 (priority 2022, published 2025).

Columns and labels:
postsynaptic D2 receptor = postsynaptic D2 receptor (Homo sapiens (Human), UniProt P14416); settings: postsynaptic D2 receptor antagonist; Li et al., J Med Chem 2014; cited from earlier work
[1] = test system: depressive episodes associated with bipolar I or II disorder; settings: Calabrese et al. 2021; cited from earlier work

Chain of postsynaptic D2 receptor (P14416 whole entry): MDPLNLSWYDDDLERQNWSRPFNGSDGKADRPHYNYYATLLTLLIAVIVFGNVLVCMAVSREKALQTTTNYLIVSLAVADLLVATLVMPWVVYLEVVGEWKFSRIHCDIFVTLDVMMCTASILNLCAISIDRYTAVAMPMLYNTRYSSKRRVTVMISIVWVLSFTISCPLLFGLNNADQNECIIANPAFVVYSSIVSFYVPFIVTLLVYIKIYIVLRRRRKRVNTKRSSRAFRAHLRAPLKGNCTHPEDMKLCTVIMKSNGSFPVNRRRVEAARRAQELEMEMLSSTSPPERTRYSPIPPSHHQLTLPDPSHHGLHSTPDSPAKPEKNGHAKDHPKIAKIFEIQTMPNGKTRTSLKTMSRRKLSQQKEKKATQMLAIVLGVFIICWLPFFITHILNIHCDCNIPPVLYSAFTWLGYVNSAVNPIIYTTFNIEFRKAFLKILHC

For CN1CCN2c3c(cccc31)[C@@H]1CN(CCCC(=O)c3ccc(F)cc3)CC[C@@H]12 [lumateperone, Lumateperone], the Ki (postsynaptic D2 receptor) is given as 32 nM and the patient response rate [1] is given as 51.1%.
